Measured values as given in ChEMBL document CHEMBL1201862, “PubChem BioAssay data set” (2004).
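Compound exposure: 48 hours, 5 concentrations, 96-well plates. Here, GI50 denotes the concentration required for 50% inhibition of growth.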 Activity calls are given as the source filed them. Cut-off read from the data, not from the text of the source: active = GI50 up to about 1.1 µM and inactive = higher.

Key:
Assay in all cases: NCI tumour cell line growth inhibition, 48 h
786-0 = system: 786-0
A549 = system: A549
HCC 2998 = system: HCC 2998
HCT-15 = system: HCT-15
HL-60 = system: HL-60
IGROV-1 = system: IGROV-1
KM12 = system: KM12
MDA-MB-231 = system: MDA-MB-231
NCI-H23 = system: NCI-H23
OVCAR-4 = system: OVCAR-4
OVCAR-5 = system: OVCAR-5
SF-268 = system: SF-268
SF-295 = system: SF-295
SK-MEL-28 = system: SK-MEL-28
SNB-19 = system: SNB-19
SW-620 = system: SW-620
UO-31 = system: UO-31
CAKI-1 = system: CAKI-1
LOX IMVI = system: LOX IMVI

| Compound | GI50 (786-0) | GI50 (A549) | GI50 (HCC 2998) | GI50 (HCT-15) [µM] | GI50 (HL-60) | GI50 (IGROV-1) | GI50 (KM12) | GI50 (MDA-MB-231) | GI50 (NCI-H23) | GI50 (OVCAR-4) | GI50 (OVCAR-5) | GI50 (SF-268) | GI50 (SF-295) | GI50 (SK-MEL-28) | GI50 (SNB-19) | GI50 (SW-620) | GI50 (UO-31) | GI50 (CAKI-1) | GI50 (LOX IMVI) |
| --- | --- | --- | --- | --- | --- | --- | --- | --- | --- | --- | --- | --- | --- | --- | --- | --- | --- | --- | --- |
| CCCCCC(=O)N[C@@H](c1ccccc1)C(O)C(=O)OC1C[C@@]2(O)C(OC(=O)c3ccccc3)C3[C@](C)(C(=O)[C@H](O)C(=C1C)C2(C)C)C(OC1OCC(O)C(O)C1O)C[C@H]1OC[C@@]31OC(C)=O (some centres undefined) | 4.93 µM (inactive) | 7.24 µM (inactive) | 1.6 µM (inactive) | > 100 | 0.542 µM (active) | 3.99 µM (inactive) | 1.21 µM (inactive) | 67.6 µM (inactive) | 3.68 µM (inactive) | > 100 µM (inactive) | > 20.7 µM (inactive) | 2.32 µM (inactive) | 21.2 µM (inactive) | 2.7 µM (inactive) | 4.91 µM (inactive) | 16.1 µM (inactive) | > 75.9 µM (inactive) |  |  |
| CC1=CC(=O)C(=C(C)C)CC1 | > 100 µM (inactive) | > 100 µM (inactive) |  | > 100 | 53.6 µM (inactive) | > 100 µM (inactive) | > 100 µM (inactive) | > 100 µM (inactive) | > 100 µM (inactive) | > 100 µM (inactive) | > 100 µM (inactive) | > 100 µM (inactive) | > 100 µM (inactive) | > 100 µM (inactive) | > 100 µM (inactive) |  | > 100 µM (inactive) | > 100 µM (inactive) | > 100 µM (inactive) |
| O=C(O)CNCP(=O)(O)O [GLYPHOSATE] | > 100 µM (inactive) | > 100 µM (inactive) |  | > 100 | > 100 µM (inactive) | > 100 µM (inactive) | > 100 µM (inactive) | > 100 µM (inactive) | > 100 µM (inactive) | > 100 µM (inactive) | > 100 µM (inactive) | > 100 µM (inactive) | > 100 µM (inactive) | > 100 µM (inactive) | > 100 µM (inactive) | > 100 µM (inactive) |  | > 100 µM (inactive) | > 100 µM (inactive) |
| O=C1O/C(=C\C=C\CO)C=C1/C=C/CO [LISSOCLINOLIDE] | 12.5 µM (inactive) | 36.4 µM (inactive) |  | 12.3 | 29.3 µM (inactive) | 16 µM (inactive) | 36.9 µM (inactive) | 21.3 µM (inactive) | 18.5 µM (inactive) | 45.5 µM (inactive) | 20 µM (inactive) | 24.5 µM (inactive) | 39 µM (inactive) | 24.4 µM (inactive) | 23.5 µM (inactive) | 18.2 µM (inactive) | 16.5 µM (inactive) | 14.5 µM (inactive) | 35.6 µM (inactive) |
